Source: US9771369B2, “Compounds and methods for kinase modulation, and indications therefor” (Plexxikon Inc., priority 2014, dated 2017)

Tests used:
[1] = tested on: BaF3-FL KIT D816V or BaF3-FL KIT V560G/D816V cell line; experiment: Cell-based assays of c-Kit mutant kinase activity (cell proliferation, ATPlite); details: at least one of the c-kit cell assays of Example 7
Procedure: The c-Kit mutant D816V inhibitors were assessed using an engineered BaF3-FL KIT D816V or BaF3-FL KIT V560G/D816V cell line. The BaF3-FL KIT D816V cell lines were created by introduction of KIT mutant (D816V) full length constructs that render the cells dependent on the introduced kinase for growth. Inhibitors of c-Kit mutant D816V kinase reduce or eliminate the mediated c-kit mutant D816V kinase activation, resulting in reduced cell proliferation of the BaF3-FL Kit mutant D816V cells. This inhibition is measured by the effect of compound concentration on cell growth to assess IC50 values. BaF3-FL KIT D816V cells were seeded at 1×10^4 cells per well of a 96 well cell culture plate in 50 μl of cell culture medium of RPMI Medium 1× (Invitrogen #11875-093) supplemented with 10% FBS (Invitrogen #10438), 1% Non Essential Amino Acids (Invitrogen #11140), 1% Penicillin Streptomycin (Invitrogen #15140), 1% L-Glutamine (Invitrogen #25030-081). Compounds were dissolved in DMSO at a concentration of 5 mM and were serially diluted 1:3 for a total of eight points and added to the cells to a final maximum concentration of 10 μM in 100 μl cell culture medium (final concentration 0.2% DMSO). Cells were also treated with Dasatinib as a positive control. The cells were incubated at 37° C., 5% CO2 for three days. ATPlite Buffer (Perkin Elmer #6016739) and substrate were equilibrated to room temperature, and enzyme/substrate Recombinant Firefly Luciferase/D-Luciferin was reconstituted. The cell plates were equilibrated to room temperature for 30 minutes, then lysed by addition of 25 μL per well of the ATPlite Reagent. The plate was mixed for 5 minutes on a plate shaker to lyse the cells. The plates were read on a Tecan Safire using Luminescence protocol modified to read 0.1s per well. The luminescence reading assesses the ATP content, which correlates directly with cell number such that the reading as a function of compound concentration is used to determine the IC50 value.
Plasmids P75635 and P75565 were engineered for mammalian cell expression. In both plasmids, full-length human v-kit Hardy-Zuckerman 4 feline sarcoma viral oncogene homolog gene (NCBI accession NM_000222, KIT, residues M1-V976) was subcloned into the pCI-Neo vector (Promega E1841). Plasmid P75635 contains the mutation of residue Aspartic acid 816 to Valine. Plasmid P75565 contains the double mutation of residues Valine 560 to Glycine and Aspartic acid 816 to Valine. The pCI-neo Mammalian Expression Vector carries the human cytomegalovirus (CMV) immediate-early enhancer/promoter region to promote constitutive expression of KIT and contains the neomycin phosphotransferase gene, a selectable marker.
It is understood that the results of these assays may vary as assay conditions are varied. Inhibition levels determined under the conditions described herein represent a relative activity for the compounds tested under the specific conditions employed. The cell based assays are likely to show variability due to the complexity of the system and the sensitivity thereof to any changes in the assay conditions. […] In some instances, the compounds were not tested in all of the assays, or assay results were not valid.

c-Kit kinase = c-Kit kinase (Homo sapiens (Human), UniProt P10721); experiment: c-Kit biochemical assay (AlphaScreen kinase activity)
Chain of c-Kit kinase (P10721 26-976): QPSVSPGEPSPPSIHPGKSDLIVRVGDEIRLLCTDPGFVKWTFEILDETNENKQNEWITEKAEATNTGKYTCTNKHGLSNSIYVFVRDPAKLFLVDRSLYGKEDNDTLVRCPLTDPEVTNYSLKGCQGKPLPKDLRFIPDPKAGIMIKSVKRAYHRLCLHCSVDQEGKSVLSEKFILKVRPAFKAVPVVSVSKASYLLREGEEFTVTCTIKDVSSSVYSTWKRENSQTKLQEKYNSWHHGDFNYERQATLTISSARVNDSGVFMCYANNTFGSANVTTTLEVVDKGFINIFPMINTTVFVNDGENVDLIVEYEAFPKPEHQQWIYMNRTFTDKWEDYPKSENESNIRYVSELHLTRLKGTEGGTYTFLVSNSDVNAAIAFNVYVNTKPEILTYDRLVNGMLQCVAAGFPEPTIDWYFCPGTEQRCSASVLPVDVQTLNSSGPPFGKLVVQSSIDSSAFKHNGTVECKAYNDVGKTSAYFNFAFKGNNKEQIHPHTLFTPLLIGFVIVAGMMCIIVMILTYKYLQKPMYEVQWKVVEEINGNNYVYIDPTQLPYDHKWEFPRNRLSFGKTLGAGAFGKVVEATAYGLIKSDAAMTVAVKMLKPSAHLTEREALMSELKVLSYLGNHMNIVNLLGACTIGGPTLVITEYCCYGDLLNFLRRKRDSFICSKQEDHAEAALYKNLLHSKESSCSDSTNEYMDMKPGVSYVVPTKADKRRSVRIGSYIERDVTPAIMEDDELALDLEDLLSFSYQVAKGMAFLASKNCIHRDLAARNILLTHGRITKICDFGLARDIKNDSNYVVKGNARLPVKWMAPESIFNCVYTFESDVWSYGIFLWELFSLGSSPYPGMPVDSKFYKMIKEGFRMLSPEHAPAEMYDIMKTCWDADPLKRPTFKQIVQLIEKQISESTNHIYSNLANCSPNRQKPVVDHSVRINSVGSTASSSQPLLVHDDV
Procedure: Assays for biochemical cell-based activity of c-kit kinase are known in the art, for example, as described in U.S. Pat. Nos. 7,498,342 and 7,846,941, the disclosures of which are hereby incorporated by reference as it relates to such assays. The c-kit (or kinase domain thereof) is an active kinase in AlphaScreen. IC50 values are determined with respect to inhibition of c-Kit kinase activity, where inhibition of phosphorylation of a peptide substrate is measured as a function of compound concentration. Compounds to be tested were dissolved in DMSO to a concentration of 30 mM. These were diluted 30 μl into 130 μl of DMSO (4 mM) and 1 μl was added to an assay plate. These were then serially diluted 1:3 (50 μl to 100 μl DMSO) for a total of 8 points. Plates were prepared such that each kinase reaction is 30 μl in 1× kinase buffer (50 mM HEPES, pH 7.2, 5 mM MgCl2, 5 mM MnCl2, 0.01% NP-40, 0.2% BSA), 5% DMSO and 10 μM ATP. Substrate was 100 nM biotin-(E4Y)3 (Open Source Biotech, Inc.). C-kit kinase was at 0.1 ng per sample. After incubation of the kinase reaction for 1 hour at room temperature, 5 μl of donor beads (Streptavidin coated beads (Perkin Elmer Life Science) final concentration 1 μg/ml) in stop buffer (50 mM EDTA in 1× kinase buffer) was added, the sample was mixed and incubated for 30 minutes at room temperature before adding […] of acceptor beads (PY30 coated beads (Perkin Elmer Life Science) final concentration 1 μg/ml) in stop buffer. The samples were incubated for 60 minutes at room temperature and the signal per well was read on AlphaQuest reader. Phosphorylated substrate results in binding of the PY30 antibody and association of the donor and acceptor beads such that signal correlates with kinase activity. The signal vs. compound concentration was used to determine the IC50.
Compounds were also tested using a similar assay with a 10-fold higher ATP concentration. For these samples, compounds to be tested were dissolved in DMSO to a concentration of 30 mM. These were diluted 30 μl into 130 μl of DMSO (4 mM) and 1 μl was added to an assay plate. These were then serially diluted 1:3 (50 μl to 100 μl DMSO) for a total of 8 points. Plates were prepared such that each kinase reaction is 30 μl in 1× kinase buffer (25 mM HEPES, pH 7.5, 2 mM MgCl2, 2 mM MnCl2, 0.01% […], 1 mM DTT, and 0.001% BSA), 5% DMSO and 100 μM ATP. Substrate was 30 nM biotin-(E4Y)10 (Upstate Biotech, Cat#12-440). C-kit kinase was at 1 ng per sample. After incubation of the kinase reaction for 1 hour at room temperature, 5 μl of donor beads (Streptavidin coated beads (Perkin Elmer Life Science) final concentration 10 μg/ml) in stop buffer (25 mM HEPES pH 7.5, 100 mM EDTA, 0.3% BSA) was added, the sample was mixed and incubated for 30 minutes at room temperature before adding 5 μl of acceptor beads (PY30 coated beads (Perkin Elmer Life Science) final concentration 10 μg/ml) in stop buffer. The samples were incubated for 60 minutes at room temperature and the signal per well was read on AlphaQuest or Envision reader (Perkin Elmer Life Science). Phosphorylated substrate results in binding of the PY30 antibody and association of the donor and acceptor beads such that signal correlates with kinase activity. The signal vs. compound concentration was used to determine the IC50.
The c-kit enzyme used in the above assay was either obtained from Cell Signaling Technology (Cat. #7754) or was prepared as follows: A plasmid encoding kit (DNA and encoded protein sequences shown below) was engineered using common polymerase chain reaction (PCR) methods. Complementary DNA cloned from various human tissues were purchased from Invitrogen, and these were used as substrates in the PCR reactions. Specific custom synthetic oligonucleotide primers were designed to initiate the PCR product, and also to provide the appropriate restriction enzyme cleavage sites for ligation with the plasmids. […]

c-kit mutant D816V = c-kit mutant D816V (Homo sapiens (Human), UniProt P10721, D816V/DEL694-753); experiment: c-Kit mutant D816V biochemical assay (AlphaScreen kinase activity)
Chain of c-kit mutant D816V (P10721 other isoform, or with tags, fused parts or gaps D816V/del 694-753): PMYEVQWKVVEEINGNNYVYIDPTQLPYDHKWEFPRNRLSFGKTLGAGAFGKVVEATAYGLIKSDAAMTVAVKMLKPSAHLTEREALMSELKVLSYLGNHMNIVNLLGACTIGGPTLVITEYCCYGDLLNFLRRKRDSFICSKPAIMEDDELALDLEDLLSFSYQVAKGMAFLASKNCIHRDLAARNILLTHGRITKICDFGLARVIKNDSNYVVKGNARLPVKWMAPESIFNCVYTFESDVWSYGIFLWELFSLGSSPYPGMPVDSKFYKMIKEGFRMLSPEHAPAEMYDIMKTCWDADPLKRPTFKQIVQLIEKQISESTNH
Procedure: The c-kit mutant D816V (or kinase domain thereof) is an active kinase in AlphaScreen. IC50 values are determined with respect to inhibition of c-Kit mutant D816V kinase activity, where inhibition of phosphorylation of a peptide substrate is measured as a function of compound concentration. Compounds to be tested were dissolved in DMSO to a concentration of 30 mM. These were diluted […] of DMSO (4 mM) and 1 μl was added to an assay plate. These were then serially diluted 1:3 (50 μl to […] DMSO) for a total of 8 points. Plates were prepared such that each kinase reaction is […] in 1× kinase buffer (25 mM HEPES, pH 7.2, 8 mM MgCl2, 2 mM MnCl2, 50 mM NaCl, 0.01% Brij, 1 mM DTT, 0.01% BSA), 5% DMSO and 10 μM ATP. Substrate was 30 nM biotin-(E4Y)10 (EMD Millipore, Cat#12-440). C-kit mutant D816V kinase was at 0.75 ng per sample. After incubation of the kinase reaction for 30 minutes at room temperature, 5 μl of donor beads (Streptavidin coated beads (Perkin Elmer Life Science) final concentration 7.5 μg/ml) in stop buffer (25 mM Hepes pH 7.5, 100 mM EDTA, 0.01% BSA) was added, the sample was mixed and incubated for 30 minutes at room temperature before adding […] of acceptor beads (PY30 coated beads (Perkin Elmer Life Science) final concentration 7.5 μg/ml) in stop buffer. The samples were incubated for 60 minutes at room temperature and the signal per well was read on EnVision reader. Phosphorylated substrate results in binding of the PY30 antibody and association of the donor and acceptor beads such that signal correlates with kinase activity. The signal vs. compound concentration was used to determine the IC50.
Recombinant c-kit mutant D816V (residues 551-934, kinase insertion domain residues 694-753 deleted) with a 6×-histidine N-terminal tag (SEQ ID NO: 3) was expressed in E. coli Arctic Express (DE3) RIL (Stratagene). Cells were grown in Terrific Broth (TB) media to an OD600 of 0.6 at 37° C. at which temperature was reduced to 10° C., protein was induced with 1.0 mM IPTG for 18 hours and harvested by centrifugation at 8000×g for 30 minutes. Cells were re-suspended in 0.1M KPO4 pH 8.0, 250 mM NaCl, 10% Glycerol, 0.75% NP-40, 25 mM Imidazole, 5 mM BME with 0.2 mg/ml Lysosyme, 2.0 mM PMSF, 25 μg/ml DNAse I, incubated in ice for 30 minutes and lyzed with a cell disruptor (MicroFluidics). The lysate was clarified by centrifugation at 30,000×g for 2 hours. The protein was captured with Talon resin (Clontech). Contaminating proteins were washed off with 25 mM Tris-HCl pH 8.3, 250 mM NaCl, 15% Glycerol, 1% Triton X-100, and protein eluted using 100 mM EDTA. The protein was further purified using Gel Filtration column 26/600 Superdex 300 (GE) in 50 mM Tris-HCl , pH 8.0, 250 mM NaCl, 15% Glycerol, 5 mM BME. The protein was aliquoted and flash-frozen in liquid Nitrogen.

Row | SMILES | IC50 [1] | IC50 (c-Kit kinase) | IC50 (c-kit mutant D816V)
1 | Cc1[nH]c(C2CCN(c3ncnc4[nH]c(-c5ccncc5)cc34)CC2)nc1-c1ccccc1 [P-3001, 4-[4-(5-methyl-4-phenyl-1H-imidazol-2-yl)-1-piperidyl]-6-(4-pyridyl)-7H-pyrrolo[2,3-d]pyrimidine] | < 10 µM | 0.0001 to 1 µM | –
2 | Cc1nc(C2CCN(c3ncnc4[nH]c(-c5cccc(Cl)c5)cc34)CC2)[nH]c1-c1ccccc1 [P-3082, 6-(3-chlorophenyl)-4-[4-(4-methyl-5-phenyl-1H-imidazol-2-yl)-1-piperidyl]-7H-pyrrolo[2,3-d]pyrimidine] | < 10 µM | – | 0.0001 to 1 µM
3 | COc1cc(-c2[nH]c(C3CCN(c4ncnc5[nH]c(-c6ccc(F)cc6)cc45)CC3)nc2C)ccc1C [P-3103, 6-(4-fluorophenyl)-4-[4-[5-(3-methoxy-4-methyl-phenyl)-4-methyl-1H-imidazol-2-yl]-1-piperidyl]-7H-pyrrolo[2,3-d]pyrimidine] | – | 1 to 10 µM | 0.0001 to 1 µM
4 | COc1ccc(-c2[nH]c(C3CCN(c4ncnc5[nH]c(-c6ccc(F)cc6)cc45)CC3)nc2C(F)(F)F)cc1 [P-3147, 6-(4-fluorophenyl)-4-[4-[5-(4-methoxyphenyl)-4-(trifluoromethyl)-1H-imidazol-2-yl]-1-piperidyl]-7H-pyrrolo[2,3-d]pyrimidine] | < 10 µM | – | 0.0001 to 1 µM
5 | Cc1cc2c(N3CCC(C)(c4nc(C)c(-c5ccc(Cl)cc5)[nH]4)CC3)ncnc2[nH]1 [P-3174, 4-[4-[5-(4-chlorophenyl)-4-methyl-1H-imidazol-2-yl]-4-methyl-1-piperidyl]-6-methyl-7H-pyrrolo[2,3-d]pyrimidine] | < 10 µM | – | 0.0001 to 1 µM
